Measured values published in patent publication US20240269139A1, “COMPOUNDS FOR TARGETED PROTEIN DEGRADATION OF KINASES” (DANA-FARBER CANCER INSTITUTE, INC., priority 2020, published 2024).
Where two headings read alike, the source gives them in different places.

Assays:
Assay type in all cases: cell-based
[1] = target: T1, protein kinases (human kinome) (Homo sapiens, UniProt Q13163); conditions: experiment wp071
T1 sequence (Q13163 1-448): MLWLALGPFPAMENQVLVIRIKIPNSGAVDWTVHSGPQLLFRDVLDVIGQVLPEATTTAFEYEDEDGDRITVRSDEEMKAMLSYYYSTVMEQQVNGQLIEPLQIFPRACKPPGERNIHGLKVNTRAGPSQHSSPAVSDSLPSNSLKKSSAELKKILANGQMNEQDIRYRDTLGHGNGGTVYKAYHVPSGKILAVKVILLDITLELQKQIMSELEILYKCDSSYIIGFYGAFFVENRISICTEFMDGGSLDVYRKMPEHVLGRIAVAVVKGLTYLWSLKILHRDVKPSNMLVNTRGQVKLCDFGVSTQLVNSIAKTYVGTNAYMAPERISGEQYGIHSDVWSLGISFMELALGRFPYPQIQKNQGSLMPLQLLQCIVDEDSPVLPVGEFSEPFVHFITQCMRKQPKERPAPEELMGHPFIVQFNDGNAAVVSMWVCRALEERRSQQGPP

[2] = target: protein kinases (human kinome) (Homo sapiens, UniProt P50750)
[3] = target: protein kinases (human kinome) (Homo sapiens, UniProt Q96RU7)
[4] = target: protein kinases (human kinome) (Homo sapiens, UniProt P31749); conditions: for logFC: AKT1 (P31749)
[5] = target: protein kinases (human kinome) (Homo sapiens, UniProt P45983); conditions: for logFC MAPK8 (P45983): Experiment wp152
[6] = target: T2, protein kinases (human kinome) (Homo sapiens, UniProt P78356); conditions: PIP4K2B (P78356)
T2 sequence (P78356 1-416): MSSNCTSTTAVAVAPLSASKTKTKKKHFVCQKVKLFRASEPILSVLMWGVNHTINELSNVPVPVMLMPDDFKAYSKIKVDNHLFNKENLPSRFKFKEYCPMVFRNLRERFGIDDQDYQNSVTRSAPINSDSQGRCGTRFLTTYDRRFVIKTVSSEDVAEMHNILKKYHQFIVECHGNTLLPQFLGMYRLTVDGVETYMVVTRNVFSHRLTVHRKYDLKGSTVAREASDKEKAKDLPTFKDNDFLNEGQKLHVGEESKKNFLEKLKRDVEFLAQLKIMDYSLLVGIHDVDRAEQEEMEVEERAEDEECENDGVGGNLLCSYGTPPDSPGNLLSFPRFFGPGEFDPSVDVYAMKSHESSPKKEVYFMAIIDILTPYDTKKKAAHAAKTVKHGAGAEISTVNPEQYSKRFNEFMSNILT

[7] = target: protein kinases (human kinome) (Homo sapiens, UniProt Q8TF76); conditions: experiment wp137
[8] = target: protein kinases (human kinome) (Homo sapiens, UniProt P17948); conditions: experiment wp131
[9] = target: protein kinases (human kinome) (Homo sapiens, UniProt Q8TCT0); conditions: protein CERK (Q8TCT0); experiment wp131; down
[10] = target: protein kinases (human kinome) (Homo sapiens, UniProt Q99640); conditions: experiment wp131
[11] = target: protein kinases (human kinome) (Homo sapiens, UniProt P52429); conditions: protein DGKE (P52429); experiment wp056; down
[12] = target: protein kinases (human kinome) (Homo sapiens, UniProt P29317); conditions: for logFC: EPHA2 (P29317)
protein kinases (human kinome) (Homo sapiens, UniProt P29317), sequence (P29317 24-976): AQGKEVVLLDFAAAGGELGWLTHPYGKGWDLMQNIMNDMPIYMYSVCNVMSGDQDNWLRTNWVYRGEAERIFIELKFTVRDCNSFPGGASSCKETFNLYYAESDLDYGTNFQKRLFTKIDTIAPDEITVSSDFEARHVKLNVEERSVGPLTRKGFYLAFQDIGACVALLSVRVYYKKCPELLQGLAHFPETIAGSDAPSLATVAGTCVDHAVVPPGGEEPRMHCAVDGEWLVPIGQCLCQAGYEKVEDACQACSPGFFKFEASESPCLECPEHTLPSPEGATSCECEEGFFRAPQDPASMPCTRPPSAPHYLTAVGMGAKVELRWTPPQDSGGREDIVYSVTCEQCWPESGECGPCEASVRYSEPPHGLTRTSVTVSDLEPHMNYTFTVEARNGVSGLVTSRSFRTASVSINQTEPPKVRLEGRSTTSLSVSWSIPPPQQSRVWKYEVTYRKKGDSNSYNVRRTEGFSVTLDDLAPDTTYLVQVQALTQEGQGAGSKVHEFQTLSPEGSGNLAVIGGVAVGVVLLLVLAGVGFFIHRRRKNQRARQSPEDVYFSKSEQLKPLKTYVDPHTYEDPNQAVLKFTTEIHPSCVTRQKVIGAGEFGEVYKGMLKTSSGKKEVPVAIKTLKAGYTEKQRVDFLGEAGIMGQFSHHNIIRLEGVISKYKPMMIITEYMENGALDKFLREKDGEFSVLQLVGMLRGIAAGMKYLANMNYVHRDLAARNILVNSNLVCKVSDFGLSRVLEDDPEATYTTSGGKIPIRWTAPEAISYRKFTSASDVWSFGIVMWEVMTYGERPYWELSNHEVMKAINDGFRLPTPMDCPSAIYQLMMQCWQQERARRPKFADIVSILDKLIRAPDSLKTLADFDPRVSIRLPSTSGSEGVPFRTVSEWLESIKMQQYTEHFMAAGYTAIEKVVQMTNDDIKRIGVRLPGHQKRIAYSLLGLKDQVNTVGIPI

protein kinases (human kinome) (Homo sapiens, UniProt P50750), sequence (P50750 whole entry): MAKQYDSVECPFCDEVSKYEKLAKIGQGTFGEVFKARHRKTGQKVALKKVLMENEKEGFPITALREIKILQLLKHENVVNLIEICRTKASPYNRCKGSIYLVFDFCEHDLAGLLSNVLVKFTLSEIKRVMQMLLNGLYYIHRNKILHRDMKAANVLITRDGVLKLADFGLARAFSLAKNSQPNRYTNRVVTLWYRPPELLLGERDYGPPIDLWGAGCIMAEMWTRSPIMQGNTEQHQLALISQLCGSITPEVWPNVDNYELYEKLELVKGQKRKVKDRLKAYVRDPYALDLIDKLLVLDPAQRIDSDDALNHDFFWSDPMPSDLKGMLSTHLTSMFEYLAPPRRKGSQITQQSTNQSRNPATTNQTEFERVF
protein kinases (human kinome) (Homo sapiens, UniProt P45983), sequence (P45983 whole entry): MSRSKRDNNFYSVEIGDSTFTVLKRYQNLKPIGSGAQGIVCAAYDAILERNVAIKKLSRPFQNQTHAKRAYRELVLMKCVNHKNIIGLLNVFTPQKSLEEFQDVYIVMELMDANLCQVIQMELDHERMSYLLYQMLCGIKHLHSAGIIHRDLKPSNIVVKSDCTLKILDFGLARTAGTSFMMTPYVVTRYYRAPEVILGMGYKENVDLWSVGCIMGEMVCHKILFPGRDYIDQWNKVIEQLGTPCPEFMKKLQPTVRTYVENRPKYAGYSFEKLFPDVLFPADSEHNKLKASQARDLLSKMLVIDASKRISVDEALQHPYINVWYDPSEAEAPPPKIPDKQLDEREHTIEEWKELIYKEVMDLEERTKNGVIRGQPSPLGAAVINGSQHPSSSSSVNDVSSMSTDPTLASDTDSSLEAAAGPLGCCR
protein kinases (human kinome) (Homo sapiens, UniProt P31749), sequence (P31749 whole entry): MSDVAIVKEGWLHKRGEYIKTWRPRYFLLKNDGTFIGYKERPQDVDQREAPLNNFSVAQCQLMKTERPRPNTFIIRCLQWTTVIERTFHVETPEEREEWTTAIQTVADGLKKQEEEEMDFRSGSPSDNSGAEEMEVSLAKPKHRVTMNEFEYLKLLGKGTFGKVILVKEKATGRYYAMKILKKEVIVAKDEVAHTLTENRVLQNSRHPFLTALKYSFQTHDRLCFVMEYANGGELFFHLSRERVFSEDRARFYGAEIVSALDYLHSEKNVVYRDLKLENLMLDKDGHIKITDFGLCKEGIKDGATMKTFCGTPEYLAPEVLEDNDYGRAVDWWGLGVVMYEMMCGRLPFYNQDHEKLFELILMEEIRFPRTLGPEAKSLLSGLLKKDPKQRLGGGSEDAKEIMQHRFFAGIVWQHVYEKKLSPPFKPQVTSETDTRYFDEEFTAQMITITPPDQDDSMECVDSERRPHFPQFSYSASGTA
protein kinases (human kinome) (Homo sapiens, UniProt Q99640), sequence (Q99640 whole entry): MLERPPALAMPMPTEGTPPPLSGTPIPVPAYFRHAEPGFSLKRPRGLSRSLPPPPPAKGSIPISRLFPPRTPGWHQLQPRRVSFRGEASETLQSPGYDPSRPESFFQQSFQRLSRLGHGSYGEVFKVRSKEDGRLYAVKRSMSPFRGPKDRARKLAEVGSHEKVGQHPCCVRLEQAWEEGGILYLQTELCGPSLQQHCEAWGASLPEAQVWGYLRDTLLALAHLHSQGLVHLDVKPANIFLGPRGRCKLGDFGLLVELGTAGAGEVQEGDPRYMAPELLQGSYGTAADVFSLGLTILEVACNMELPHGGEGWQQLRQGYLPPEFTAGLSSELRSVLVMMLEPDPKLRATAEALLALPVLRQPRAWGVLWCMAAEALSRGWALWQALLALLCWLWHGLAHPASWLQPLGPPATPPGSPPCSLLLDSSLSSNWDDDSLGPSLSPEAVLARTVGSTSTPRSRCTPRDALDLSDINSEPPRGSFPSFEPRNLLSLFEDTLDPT
protein kinases (human kinome) (Homo sapiens, UniProt Q96RU7), sequence (Q96RU7 whole entry): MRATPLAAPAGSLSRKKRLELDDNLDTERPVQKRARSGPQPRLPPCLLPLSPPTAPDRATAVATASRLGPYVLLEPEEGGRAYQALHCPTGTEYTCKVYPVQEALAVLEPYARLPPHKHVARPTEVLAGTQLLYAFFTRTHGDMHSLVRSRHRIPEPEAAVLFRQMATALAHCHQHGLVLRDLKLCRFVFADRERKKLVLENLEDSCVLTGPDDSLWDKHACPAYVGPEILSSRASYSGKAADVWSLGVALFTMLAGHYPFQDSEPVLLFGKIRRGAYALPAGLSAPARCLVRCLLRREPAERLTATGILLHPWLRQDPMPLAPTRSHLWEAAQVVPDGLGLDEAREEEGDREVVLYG
protein kinases (human kinome) (Homo sapiens, UniProt Q8TF76), sequence (Q8TF76 whole entry): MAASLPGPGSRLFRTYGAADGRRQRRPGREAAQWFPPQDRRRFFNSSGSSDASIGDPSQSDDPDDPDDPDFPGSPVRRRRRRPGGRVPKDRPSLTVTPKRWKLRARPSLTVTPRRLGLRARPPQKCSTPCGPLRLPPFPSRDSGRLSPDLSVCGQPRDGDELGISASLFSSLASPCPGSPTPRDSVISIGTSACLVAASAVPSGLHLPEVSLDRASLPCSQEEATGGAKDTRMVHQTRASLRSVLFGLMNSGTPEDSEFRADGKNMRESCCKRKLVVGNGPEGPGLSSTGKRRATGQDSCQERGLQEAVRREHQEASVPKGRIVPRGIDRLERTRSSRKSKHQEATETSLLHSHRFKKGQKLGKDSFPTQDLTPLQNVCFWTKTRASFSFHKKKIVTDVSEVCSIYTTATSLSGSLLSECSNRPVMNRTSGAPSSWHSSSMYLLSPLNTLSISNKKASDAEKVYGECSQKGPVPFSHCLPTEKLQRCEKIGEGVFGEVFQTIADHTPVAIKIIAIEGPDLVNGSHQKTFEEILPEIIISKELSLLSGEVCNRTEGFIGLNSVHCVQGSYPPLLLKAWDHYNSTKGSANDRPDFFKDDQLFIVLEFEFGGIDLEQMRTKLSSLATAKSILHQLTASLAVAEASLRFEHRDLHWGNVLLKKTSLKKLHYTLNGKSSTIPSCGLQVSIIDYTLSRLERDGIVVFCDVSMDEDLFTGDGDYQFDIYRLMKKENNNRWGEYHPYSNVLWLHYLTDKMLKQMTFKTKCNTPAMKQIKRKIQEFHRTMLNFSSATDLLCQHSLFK
protein kinases (human kinome) (Homo sapiens, UniProt P52429), sequence (P52429 whole entry): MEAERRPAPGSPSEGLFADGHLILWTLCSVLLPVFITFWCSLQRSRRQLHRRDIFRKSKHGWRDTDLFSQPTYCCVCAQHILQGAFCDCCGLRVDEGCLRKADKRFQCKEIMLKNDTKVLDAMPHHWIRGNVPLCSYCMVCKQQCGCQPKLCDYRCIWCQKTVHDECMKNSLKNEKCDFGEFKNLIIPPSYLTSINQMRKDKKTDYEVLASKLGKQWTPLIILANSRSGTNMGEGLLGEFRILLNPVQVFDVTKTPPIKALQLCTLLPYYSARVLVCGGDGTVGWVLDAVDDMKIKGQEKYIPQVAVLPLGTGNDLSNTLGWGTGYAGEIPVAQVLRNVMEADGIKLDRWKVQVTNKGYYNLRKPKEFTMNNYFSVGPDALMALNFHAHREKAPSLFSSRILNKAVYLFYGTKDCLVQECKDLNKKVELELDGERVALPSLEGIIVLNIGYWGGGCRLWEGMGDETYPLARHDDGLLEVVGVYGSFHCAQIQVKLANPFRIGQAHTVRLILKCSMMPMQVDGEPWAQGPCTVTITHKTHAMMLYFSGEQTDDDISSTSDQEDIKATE
protein kinases (human kinome) (Homo sapiens, UniProt Q8TCT0), sequence (Q8TCT0 whole entry): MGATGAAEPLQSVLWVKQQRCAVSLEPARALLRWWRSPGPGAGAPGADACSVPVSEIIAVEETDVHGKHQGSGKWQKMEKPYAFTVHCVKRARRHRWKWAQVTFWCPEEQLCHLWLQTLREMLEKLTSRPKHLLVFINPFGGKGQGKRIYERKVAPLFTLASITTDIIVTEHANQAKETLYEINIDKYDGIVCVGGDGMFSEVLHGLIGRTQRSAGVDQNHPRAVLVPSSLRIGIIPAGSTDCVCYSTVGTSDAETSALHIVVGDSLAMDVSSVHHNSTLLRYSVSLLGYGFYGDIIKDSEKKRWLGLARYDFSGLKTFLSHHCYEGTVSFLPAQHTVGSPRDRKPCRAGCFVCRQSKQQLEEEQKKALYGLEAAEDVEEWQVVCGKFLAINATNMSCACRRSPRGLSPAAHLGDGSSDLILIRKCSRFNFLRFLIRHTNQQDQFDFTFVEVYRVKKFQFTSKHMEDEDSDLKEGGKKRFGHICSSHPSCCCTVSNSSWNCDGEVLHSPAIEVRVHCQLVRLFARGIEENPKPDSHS

Q: What does the source list for Nc1ncnc2c1c(-c1ccc(Oc3ccccc3)cc1)nn2[C@H]1CC[C@H](N2CCN(CCOCCNC(=O)CNc3cccc4c3C(=O)N(C3CCC(=O)NC3=O)C4=O)CC2)CC1 (stereo partly shown) [SB1.G.181]?
A: logFC ([1]; MAP2K5 (Q13163-1)): −1.138; logFC of MAP2K5 (Q13163-1) [1]: −1.138

Q: For CC(C)S(=O)(=O)c1ccccc1Nc1nc(Nc2ccc(N3CCN(CCOCCNC(=O)CNc4cccc5c4C(=O)N(C4CCC(=O)NC4=O)C5=O)CC3)cc2)ncc1Cl (stereo not shown) [SK.3.91], which “logFC CDK9 (P50750)” value ([2]; Experiment wp160, 2 hr) is on record?
A: The value was −0.404.

Q: What about the “logFC of CDK9 (P50750)” value ([2]; Experiment wp160, 2 hr) of the same compound?
A: The value was −0.404.

Q: What about the “logFC CDK9 (P50750)” value ([2]; Experiment wp172) of the same compound?
A: The value was −1.423.

Q: And the “logFC of CDK9 (P50750)” value ([2]; Experiment wp172)?
A: Its value is −1.423.

Q: What about the “logFC CDK9 (P50750)” value ([2]; experiment wp160, 4 hr) of the same compound?
A: Its value is −1.068.

Q: And the “logFC of CDK9 (P50750)” value ([2]; experiment wp160, 4 hr)?
A: The value was −1.068.

Q: What about the “logFC TRIB3 (Q96RU7)” value ([3]; Experiment wp114, direction of change down) of the same compound?
A: The value was −1.211.

Q: What about the “logFC TRIB3” value ([3]; protein TRIB3 (Q96RU7), experiment wp114, down) of the same compound?
A: Its value is −1.211.

Q: How did the logFC ([4]; experiment wp118) turn out when C[C@@H]1C[C@@H](O)c2ncnc(N3CCN(C(=O)[C@H](CNCCCCCCCCCCc4cccc5c4C(=O)N(C4CCC(=O)NC4=O)C5=O)c4ccc(Cl)cc4)CC3)c21 (stereo partly shown) [INY.03.041.01] was run?
A: Its logFC is −2.258.

Q: What about the logFC ([4]; experiment wp135, 4 hr) of the same compound?
A: The logFC was −1.225.

Q: And the “logFC of AKT1 (P31749)” value ([4]; Experiment wp135, 4 hr)?
A: The value was −1.225.

Q: And the “logFC of AKT1 (P31749)” value ([4]; experiment wp118)?
A: Its value is −2.258.

Q: With Cc1ccc(NC(=O)c2cccc(C(F)(F)F)c2)cc1N1Cc2cnc(Nc3ccc(N4CCN(Cc5cn(CCCCCOc6cccc7c6C(=O)N(C6CCC(=O)NC6=O)C7=O)nn5)CC4)nc3)nc2N(C)C1=O (stereo not shown) [DB0646, N-(3-(7-((6-(4-((1-(5-((2-(2,6-Dioxopiperidin-3-yl)-1,3-dioxoisoindolin-4-yl)oxy)pentyl)-1H-1,2,3-triazol-4-yl)methyl)piperazin-1-v)pyridin-3-yl)amino)-1-methyl-2-oxo-1,4-dihydropyrimido[4,5-d]pyrimidin-3(2H)-yl)-4-methylphenyl)-3-(trifluoromethyl)benzamide] as the compound, how does the “logFC MAPK8 (P45983)” value ([5]; direction down) read?
A: The value was −0.8433.

Q: And the “logFC MAPK8 (P45983)” value ([5]; direction of change down)?
A: The value was −0.8433.

Q: And the “logFC MAPK8 (P45983-1)” value ([5]; Experiment wp172, direction down)?
A: The value was −0.376.

Q: What about the “logFC MAPK8 (P45983-1)” value ([5]; experiment wp172, direction of change down) of the same compound?
A: Its value is −0.376.

Q: What about the logFC ([6]; experiment wp045) of the same compound?
A: The logFC was −1.296.

Q: What about the logFC ([6]; experiment wp103) of the same compound?
A: Its logFC is −0.6848.

Q: And the logFC ([6]; experiment wp107)?
A: Its logFC is −1.024.

Q: What about the logFC ([6]; experiment wp117) of the same compound?
A: Its logFC is −1.027.

Q: And the logFC ([6]; experiment wp152)?
A: Its logFC is −1.147.

Q: And the logFC ([6]; experiment wp160, 4 hr)?
A: Its logFC is −0.5025.

Q: And the logFC ([6]; experiment wp160, 8 hr)?
A: The logFC was −0.8848.

Q: What does the source list for CC(C)S(=O)(=O)c1ccccc1Nc1nc(Nc2ccc(N3CCN(CCOCCOCCNC(=O)CNc4cccc5c4C(=O)N(C4CCC(=O)NC4=O)C5=O)CC3)cc2)ncc1Cl (stereo not shown) [TL12.186]?
A: logFC HASPIN (Q8TF76-1) ([7]; direction of change down): −0.368; logFC HASPIN ([7]; protein HASPIN (QSTF76-1), down): −0.368; logFC FLT1 (P17948-1) ([8]; direction of change down): −0.699; logFC FLT1 ([8]; protein FLT1 (P17948-1), down): −0.699; logFC CERK [9]: −0.3343

Q: How did the “logFC PKMYT1 (Q99640)” value ([10]; direction of change down) turn out when Cn1c(=O)c(-c2c(Cl)cccc2Cl)cc2cnc(Nc3ccc(OCCNC(=O)CCCCCCNC(=O)COc4cccc5c4C(=O)N(C4CCC(=O)NC4=O)C5=O)cc3)nc21 (stereo not shown) [SB1.G.192.1] was run?
A: The value was −0.7301.

Q: What about the “logFC PKMYT1” value ([10]; protein PKMYT1 (Q99640), down) of the same compound?
A: The value was −0.7301.

Q: For C=CCn1c(=O)c2cnc(Nc3ccc(N4CCN(CCCNc5cccc6c5C(=O)N(C5CCC(=O)NC5=O)C6=O)CC4)cc3)nc2n1-c1cccc(C(C)(C)O)n1 (stereo not shown) [ZNL.02.096], which “logFC DGKE” value [11] is on record?
A: The value was −0.3512.

Q: With Cc1ccc(C(=O)Nc2ccc(CN3CCN(CCCOCCOCCOCCNC(=O)COc4cccc5c4C(=O)N(C4CCC(=O)NC4=O)C5=O)CC3)c(C(F)(F)F)c2)cc1C#Cc1cnc2cccnn12 (stereo not shown) [SB1.G.187] as the compound, how does the logFC ([12]; experiment wp114) read?
A: The logFC was −0.401.

Q: What about the logFC ([12]; experiment wp172) of the same compound?
A: The logFC was −0.4107.

Q: What about the “logFC of EPHA2 (P29317)” value ([12]; Experiment wp114) of the same compound?
A: The value was −0.401.

Q: And the “logFC of EPHA2 (P29317)” value ([12]; Experiment wp172)?
A: Its value is −0.4107.
